# Reference: US10738119B2, “Combination therapy for hepatocellular carcinoma” (Health Research, Inc., priority 2014, dated 2020)
# “Also recorded” adds a separate entry of the source.
# What was measured:
# Format in all cases: in vivo, human
# Foxp3+ Tregs = experiment: Multi-parametric flow cytometry of Tregs in PBMC of HCC patients pre and post sorafenib treatment; settings: pre vs post sorafenib
# Experimental: (§1) FACS analysis was performed to measure peripheral blood Treg frequency using APC-H7 anti-CD3, V450 anti-CD4, PE anti-CD127, PE-Cy5 anti-CTLA-4 (BD Biosciences) and PE-Cy7 anti-PD-1, Alexa488 anti-Foxp3 (Biolegend). Detection of surface GARP levels was achieved by using mouse anti-human GARP (Enzo Life Sciences) followed by staining with PE F(ab′)2 goat anti-mouse IgG (Jackson ImmunoResearch Laboratories). Cells were incubated with normal mouse IgG for 10 min prior to surface and intracellular staining. Intracellular analysis for Foxp3 and CTLA-4 was performed after fixation and permeabilization of cells using intracellular staining kit (eBioscience) according to manufacturer's instructions. All samples were acquired on LSRII flow cytometer (BD Biosciences) and analyzed using Flowjo Model Fit (Tree Star).
# (§2) Plasma levels of both pro-inflammatory and immunosuppressive cytokines were determined by ELISA.
# (§3) This study was approved by institutional review board of Roswell Park Cancer Institute (RPCI), Buffalo, N.Y. and informed consent was obtained from all participants. Heparinized peripheral blood samples were obtained from HCC patients before the initiation of sorafenib treatment and after four weeks or more of oral sorafenib treatment, through Data Bank and Biorepository at RPCI.
# (§4) PBMCs were isolated immediately by Ficoll-Paque Plus density gradient centrifugation and cryopreserved. Plasma was isolated and stored at −80° C. and used for measurement of immunosuppressive and immunostimulatory cytokines as described previously. Frequency, phenotype and functionality of immune cells after blocking immune check points were analyzed by multi-parameter flow cytometry.
# HCC patients [1] = experiment: Overall survival of HCC patients stratified by greater or smaller decrease in immune parameters after sorafenib treatment
# Experimental: FIGS. 15A-15D. […] Overall survival of patients was calculated based on the status of (FIG. 15A) absolute numbers of CD4^+PD-1^+ T cells (FIG. 15B) CD8^+PD-1^+ T cells (FIG. 15C) expression levels of PD-1 (MFI) on CD8^+ T cells (FIG. 15D) absolute numbers of CD4^+Foxp3^+ T cells.
# FIGS. 18A-18R. […] Overall survival of patients was calculated based on the status of (FIG. 18A) frequency of CD4^+Foxp3^+ Tregs (FIG. 18B) frequency of GARP^+Foxp3^+ Tregs (FIG. 18C) expression levels of GARP (MFI) on Foxp3^+ Tregs (FIG. 18D) frequency of CTLA-4^+Foxp3^+ Tregs (FIG. 18E) absolute number of CD4^+Foxp3^+ Tregs (FIG. 18F) expression levels of CTLA-4 (MFI) on Foxp3^+ Tregs (FIG. 18G) frequency of CD11b^+CD33^+ MDSC (FIG. 18H) absolute number of CD11b^+CD33^+ MDSC (FIG. 18I) frequency of CD4^+PD-1^+ T cells (FIG. 18J) expression levels of PD-1 (MFI) on CD4^+ T cells (FIG. 18K) frequency of Foxp3^+PD-1^+ T cells (FIG. 18L) absolute number of Foxp3^+PD-1^+ T cells (FIG. 18M) expression levels of PD-1 (MFI) on Foxp3^+CD4^+ T cells (FIG. 18N) frequency of CD8^+PD-1^+ T cells (FIG. 18O) IL-10 (FIG. 18P) TGF-β1 (FIG. 18Q) IFN-γ (FIG. 18R) IL-1β.
# as §2, §3
# IL-10 = experiment: Plasma cytokine ELISA pre and post sorafenib treatment: IL-10; settings: pre vs post sorafenib
# Experimental: (§5) Plasma isolated during PBMC separation was assayed to quantify the level of IFN-γ, IL-10, and TGF-β1 using specific ELISA kits according to the manufacturer's instructions (eBioscience).
# as §2, §3, §4
# TGF-β1 = experiment: Plasma cytokine ELISA pre and post sorafenib treatment: TGF-β1; settings: pre vs post sorafenib
# Experimental: as §5, §2, §3, §4
# HCC patients [2] = experiment: PD-1 status and survival of HCC patients treated with sorafenib (Example 2)
# Description: The individual data points in the figures represent each patient.
# IL-1β = experiment: Plasma cytokine ELISA pre and post sorafenib treatment: IL-1β; settings: pre vs post sorafenib, P<0.11, FIG. 17A
# Experimental: as §5, §2, §3, §4
# CD11b+CD33+ MDSC = experiment: Multi-parametric flow cytometry of MDSC in PBMC of HCC patients pre and post sorafenib treatment; settings: pre vs post sorafenib
# Experimental: MDSC in the peripheral blood were detected using FITC anti-CD11b (eBioscience), PE-Cy5 anti-CD33, APC anti-CD14, V450 anti-HLA-DR (BD Biosciences).
# as §2, §3, §4
# PD-1+ T cells = experiment: Multi-parametric flow cytometry of PD-1+ T cells in PBMC of HCC patients pre and post sorafenib treatment; settings: pre vs post sorafenib
# Experimental: as §1, §2
# This study was approved by institutional review board of Roswell Park Cancer Institute (RPCI), Buffalo, N.Y. and informed consent was obtained from all participants.
# as §4
# IFN-γ = experiment: Plasma cytokine ELISA pre and post sorafenib treatment: IFN-γ; settings: pre vs post sorafenib
# Experimental: as §5, §2, §3, §4
# HCC patients [3] = experiment: Overall survival of HCC patients stratified by greater or smaller decrease in immune parameters after sorafenib treatment; settings: log-rank P<0.30, FIG. 18E
smiles,measurement,setting,value
CNC(=O)c1cc(Oc2ccc(NC(=O)Nc3ccc(Cl)c(C(F)(F)F)c3)cc2)ccn1 [sorafenib],95% CI of change in frequency of CD3+CD4+Foxp3+ Tregs after sorafenib treatment,Foxp3+ Tregs; FIG. 16A,−0.44 to −1.16
same,95% CI of change in absolute numbers of CD3+CD4+Foxp3+ Tregs after sorafenib treatment,Foxp3+ Tregs; FIG. 16B,−9.48 to −3.55
same,95% CI of change in frequency of Foxp3+CTLA-4+ Tregs after sorafenib treatment,Foxp3+ Tregs; FIG. 16C,−3.18 to −0.82
same,95% CI of change in absolute number of Foxp3+CTLA-4+ Tregs after sorafenib treatment,Foxp3+ Tregs; FIG. 16D,−8.42 to −6.32
same,frequency of CD3+CD4+Foxp3+ Tregs after sorafenib treatment,"Foxp3+ Tregs; P<0.02, FIG. 16A",significant decrease
same,frequency of Foxp3+CTLA-4+ Tregs after sorafenib treatment,"Foxp3+ Tregs; P<0.02, FIG. 16C",Marked reduction
same,absolute numbers of CD3+CD4+Foxp3+ Tregs after sorafenib treatment,"Foxp3+ Tregs; P<0.05, FIG. 16B",significant decrease
same,absolute number of Foxp3+CTLA-4+ Tregs after sorafenib treatment,"Foxp3+ Tregs; P<0.05, FIG. 16D",Marked reduction
same,"overall survival, greater decrease in PD-1 expression levels on CD4+ T cells after sorafenib","HCC patients [1]; AFT models, AFT β P<0.04",better overall survival benefit
same,"overall survival, greater decrease in absolute number of MDSC after sorafenib","HCC patients [1]; AFT models, AFT β P<0.05",better prognosis; also recorded: significant correlation with overall survival
same,"overall survival, greater decrease in percentage of MDSC after sorafenib","HCC patients [1]; AFT models, AFT β P<0.05",better prognosis; also recorded: significant correlation with overall survival
same,overall survival vs absolute numbers of Foxp3+ Tregs post-sorafenib treatment,"HCC patients [1]; log-rank P<0.01, FIG. 15D",statistically significant improvement in overall survival; also recorded: significant correlation with overall survival
same,"overall survival, greater vs smaller decrease in absolute number of PD-1+CD4+ T cells after sorafenib","HCC patients [1]; log-rank P<0.04, FIG. 15A",significant interaction term; also recorded: significantly improved overall survival rate
same,"overall survival, greater vs smaller decrease in absolute number of CD8+PD-1+ T cells after sorafenib","HCC patients [1]; log-rank P<0.04, FIG. 15B",significant interaction term; also recorded: significant improvement in overall survival
same,"overall survival, greater vs smaller decrease in PD-1 expression levels on CD8+ T cells after sorafenib","HCC patients [1]; log-rank P<0.04, FIG. 15C",significant improvement in overall survival
same,"overall survival, greater vs smaller decrease in frequency of CTLA-4+ Tregs after sorafenib","HCC patients [1]; log-rank P<0.51, FIG. 18D",no significant differences in the overall survival
same,overall survival vs changes in levels of TGF-β1 after sorafenib,"HCC patients [1]; log-rank P<0.61, FIG. 18P",none of these cytokines showed any significant association; also recorded: non-significant interaction term
same,overall survival vs changes in levels of IFN-γ after sorafenib,"HCC patients [1]; log-rank P<0.62, FIG. 18Q",none of these cytokines showed any significant association; also recorded: non-significant interaction term
same,overall survival vs changes in levels of IL-10 after sorafenib,"HCC patients [1]; log-rank P<0.73, FIG. 18O",none of these cytokines showed any significant association; also recorded: non-significant interaction term
same,overall survival vs changes in levels of IL-1β after sorafenib,"HCC patients [1]; log-rank P<0.92, FIG. 18R",non-significant interaction term
same,95% CI of change in levels of IL-10 after sorafenib treatment,IL-10; FIG. 17B,−63.30 to −4.9
same,plasma levels of IL-10 after sorafenib treatment,"IL-10; P<0.03, FIG. 17B",significant decrease
same,95% CI of change in levels of TGF-β1 after sorafenib treatment,TGF-β1; FIG. 17C,−151.50 to −48.55
same,plasma levels of TGF-β1 after sorafenib treatment,"TGF-β1; P<0.03, FIG. 17C",significant decrease
same,mean survival time,HCC patients [2]; group where PD-1 was decreased,688 days
same,mean survival,HCC patients [2]; group which did not show a decrease in PD-1,168 days
same,plasma levels of IL-1β after sorafenib treatment,IL-1β,did not show any significant decrease
same,frequency of CD11b+CD33+ MDSC after sorafenib treatment,"CD11b+CD33+ MDSC; P<0.61, FIG. 16E",did not significantly impact; also recorded: did not have any significant influence
same,absolute number of CD11b+CD33+ MDSC after sorafenib treatment,"CD11b+CD33+ MDSC; P<0.92, FIG. 16F",did not significantly impact; also recorded: did not have any significant influence
same,95% CI of change in expression levels (MFI) of PD-1 on CD4+ T cells after sorafenib treatment,PD-1+ T cells; FIG. 14B,−56.51 to −12.09 MFI
same,expression levels (MFI) of PD-1 on CD4+ T cells after sorafenib treatment,"PD-1+ T cells; P<0.02, FIG. 14B",significantly decreased
same,absolute number of CD4+Foxp3+PD-1+ T cells after sorafenib treatment,"PD-1+ T cells; P<0.04, FIG. 14C",significantly decreased
same,absolute number of CD8+PD-1+ T cells after sorafenib treatment,"PD-1+ T cells; P<0.15, FIG. 14E",did not show any significant decrease
same,frequency of CD8+PD-1+ T cells after sorafenib treatment,"PD-1+ T cells; P<0.20, FIG. 14D",did not show any significant decrease
same,level of expression of PD-1 on CD8+ T cells (MFI) after sorafenib treatment,"PD-1+ T cells; P<0.31, FIG. 14F",did not show any significant decrease
same,frequency of CD4+PD-1+ T cell after sorafenib treatment,"PD-1+ T cells; n=19, P<0.01, FIG. 14A",significantly reduced
same,95% CI of change in levels of IFN-γ after sorafenib treatment,IFN-γ; FIG. 17D,−1.07 to 23.64
same,plasma levels of IFN-γ after sorafenib treatment,"IFN-γ; P<0.04, FIG. 17D",concomitant increase; also recorded: significantly increased
same,"overall survival, greater vs smaller decrease in absolute number of CTLA-4+ Tregs after sorafenib",HCC patients [3],no significant differences in the overall survival
